From US11912970B2, “Universal microfluidic culture system to analyze and control cell dynamics” (The University of Chicago, priority 2017, dated 2024) come the findings set out here.

The test system of experiment [1] is NSCs. The experiment can be described thus: NSCs proliferation (cell number) under sequential ligand inputs (permutation test and decision tree analysis). In kind it is cell-based, mouse. The note with it: sequential input. From the text:
(§1) Murine hematopoietic stem cells (HSC) are isolated by FACSAria III flow cytometer (BD Biosciences) as Lin−/c-Kit+/Sca-1+/CD48−/CD150+/CD34− (lineage, Lin: CD3e/CD11b/CD19/CD41/B220/Gr-1/Ter-119), which are approximately 50% pure HSCs. Macrophage colony-stimulating factor (M-CSF), a myeloid cytokine released during infection and inflammation, is employed to induce HSCs differentiation. Human CD34+ cells were isolated from mononuclear cells using EasySepTM human CD34 positive selection kit (Stemcell Technologies, Vancouver, BC, Canada). CD34+CD38−CD45RA−CD90+CD49f+ HSCs were sorted using a FACSAria III flow cytometer (BD Biosciences). Pro- and anti-inflammatory cytokines including TNF, IFN[…], IL-6, IP10 and MCP-1 are introduced into the cellular environment as single ligand and in combination. Embryonic NSCs with Hes-GFP and Dcx-RFP reporters were isolated at embryonic day 13.5 from a transgenic mice carrying Hes-GFP and Dcx-RFP using standard protocol (Woo, et al., 2009; Basak, et al., 2007). The resulting primary cells were verified to carry both Hes5-GFP and Dcx-RFP after isolation and allowed to grow for few passages before use in the experiments (Giachino, et al., 2009). NSCs were cultured as neurospheres in culture media (DMEM/F12+Glutamax (Gibco No:31331-028); 10 U/ml penicillin; 10 ug/ml Streptomycin; B27 supplement (1:50); FGF growth factor 0.02 ug/ml). As NSCs are sensitive to environmental variations, cell handling protocol before loading into the chip is examined systematically (including dissociation, FACS sorting, etc.). To obtain the optimal results, NSCs spheres are collected and loaded into the chip 24 hours after fresh dissociation wherein each sphere contains ˜7 to 10 cells. […]
(§2) For image acquisition, a Nikon Ti-ECLIPSE microscope with an automated translation stage and a digital CMOS camera (ORCA-Flash 4.0, Hamamatsu, Japan) was used. […] Bright field and fluorescence images were acquired and analyzed using a customized MATLAB program (Mathworks, […]). The algorithm extracts single cell traces including position, nuclear and cytoplasm fluorescence level. For example, the 3T3 cell nuclear area in each image is identified via the fluorescent nuclear marker GFP, and then the mean value of the nuclear intensity of the p65-DsRed marker is measured, and plotted as a function of time.
(§3) To investigate the role of combinatorial or temporal ordering of signals in NSC differentiation, the inventors cultured NSCs under combinatorial and sequential applications of the six regulatory ligands (FIG. 8A, FIGS. 22 and 23). […] The inventors measured the ratio of the ligand-treated cells to untreated control for cell number and Hes5-GFP expression intensity. […] Multiple experiments were repeated resulting in nearly 3000 dynamic cultures analyzed. […]

Experiment [2] deals with Hes5-GFP expression in NSCs. The experiment can be described thus: NSCs Hes5-GFP expression under sequential ligand inputs (permutation test and decision tree analysis). The note with it: for Hes5 expression relative to control: sequential input. In kind it is cell-based, mouse.
Excerpt: as §1, §2, §3

The test system of experiment [3] is NSCs. The experiment can be described thus: NSCs proliferation (cell number) under combinatorial ligand inputs (permutation test and decision tree analysis). In kind it is cell-based, mouse. Particulars: ligands in isolation or as a pair (synergy).
Excerpt: Murine hematopoietic stem cells (HSC) are isolated by FACSAria III flow cytometer (BD Biosciences) as Lin−/c-Kit+/Sca-1+/CD48−/CD150+/CD34− (lineage, Lin: CD3e/CD11b/CD19/CD41/B220/Gr-1/Ter-119), which are approximately 50% pure HSCs. Macrophage colony-stimulating factor (M-CSF), a myeloid cytokine released during infection and inflammation, is employed to induce HSCs differentiation. Human CD34+ cells were isolated from mononuclear cells using EasySepTM human CD34 positive selection kit (Stemcell Technologies, Vancouver, BC, Canada). CD34+CD38−CD45RA−CD90+CD49f+ HSCs were sorted using a FACSAria III flow cytometer (BD Biosciences). […]
as §2, with “time. […]” for “time.”

Experiment [4] deals with NSCs. Put plainly: NSCs cell fate (self-renewal or differentiation) from Hes5 level and cell numbers under sequential stimulation. In kind it is cell-based, mouse. Particulars: for cell fate outcome: sequential input. From the text: (§4) Murine hematopoietic stem cells (HSC) are isolated by FACSAria III flow cytometer (BD Biosciences) as Lin−/c-Kit+/Sca-1+/CD48−/CD150+/CD34− (lineage, Lin: CD3e/CD11b/CD19/CD41/B220/Gr-1/Ter-119), which are approximately 50% pure HSCs. Macrophage colony-stimulating factor (M-CSF), a myeloid cytokine released during infection and inflammation, is employed to induce HSCs differentiation. Human CD34+ cells were isolated from mononuclear cells using EasySepTM human CD34 positive selection kit (Stemcell Technologies, Vancouver, BC, Canada). CD34+CD38−CD45RA−CD90+CD49f+ HSCs were sorted using a FACSAria III flow cytometer (BD Biosciences). Pro- and anti-inflammatory cytokines including TNF, IFN[…], IL-6, IP10 and MCP-1 are introduced into the cellular environment as single ligand and in combination. Embryonic NSCs with Hes-GFP and Dcx-RFP reporters were isolated at embryonic day 13.5 from a transgenic mice carrying Hes-GFP and Dcx-RFP using standard protocol (Woo, et al., 2009; Basak, et al., 2007). The resulting primary cells were verified to carry both Hes5-GFP and Dcx-RFP after isolation and allowed to grow for few passages before use in the experiments (Giachino, et al., 2009). NSCs were cultured as neurospheres in culture media (DMEM/F12+Glutamax (Gibco No:31331-028); 10 U/ml penicillin; 10 ug/ml Streptomycin; B27 supplement (1:50); FGF growth factor 0.02 ug/ml). As NSCs are sensitive to environmental variations, cell handling protocol before loading into the chip is examined systematically (including dissociation, FACS sorting, etc.). To obtain the optimal results, NSCs spheres are collected and loaded into the chip 24 hours after fresh dissociation wherein each sphere contains ˜7 to 10 cells. To avoid potential artifacts due to prolonged in vitro culture, only NSCs within 10 passages were used in the study.
To investigate the role of combinatorial or temporal ordering of signals in NSC differentiation, the inventors cultured NSCs under combinatorial and sequential applications of the six regulatory ligands (FIG. 8A, FIGS. 22 and 23). For each independent NSC culture on the chip, the inventors introduced either one ligand each day (sequential inputs), or a combination of the selected ligands over a six-day period (combinatorial inputs). The inventors measured the ratio of the ligand-treated cells to untreated control for cell number and Hes5-GFP expression intensity. Each chip experiment consisted of 63 combinatorial and 720 sequential stimulation experiments, with duplicates (FIG. 8B). Multiple experiments were repeated resulting in nearly 3000 dynamic cultures analyzed. The inventors subjected all experimental outputs of NSC cell numbers and Hes5 expression to regression and classification tree analyses. […]

The test system of the next experiment is human HSCs. In kind it is cell-based. Particulars: TNF with other participating cytokines. The method, then:
FIG. 3C depicts a chart of long-term culture and TNF stimulation of human hematopoietic stem cells (HSCs). Cells were cultured on the microfluidic device in the absence of TNF (control) and 1 ng/ml TNF, for up to 5 days. […] N indicates cell numbers per chamber. […] D represents dynamic cytokine inputs, daily variation between 0.1 and 10 ng/ml.
Besides being a signaling protein involved in systemic inflammation, TNF-alpha is also widely employed to mimic the post-transplantation signaling environment (Mohabbat, et al., 2012). To mimic clinical hematopoietic stem cell transplantation (HSCT), different doses of TNF-alpha are directed to designated culture chambers housing HSCs by programmed medium exchange procedures. […] In both cases, cells proliferate at a similar, if not higher, rate than those in bulk experiments in traditional culture dishes.
Murine hematopoietic stem cells (HSC) are isolated by FACSAria III flow cytometer (BD Biosciences) as Lin−/c-Kit+/Sca-1+/CD48−/CD150+/CD34− (lineage, Lin: CD3e/CD11b/CD19/CD41/B220/Gr-1/Ter-119), which are approximately 50% pure HSCs. Macrophage colony-stimulating factor (M-CSF), a myeloid cytokine released during infection and inflammation, is employed to induce HSCs differentiation. Human CD34+ cells were isolated from mononuclear cells using EasySepTM human CD34 positive selection kit (Stemcell Technologies, Vancouver, BC, Canada). […]

The test system of experiment [5] is Hes5-GFP expression in NSCs. Put plainly: NSCs Hes5 expression under combinatorial ligand inputs (permutation test and decision tree analysis). In kind it is cell-based, mouse. The note with it: combinatorial input; for Hes5 expression, mean ratio relative to control: decision tree.
Excerpt: as §4
For image acquisition, a Nikon Ti-ECLIPSE microscope with an automated translation stage and a digital CMOS camera (ORCA-Flash 4.0, Hamamatsu, Japan) was used. The stage and image acquisition was controlled via the NIS Elements software. Bright field and fluorescence images were acquired and analyzed using a customized MATLAB program (Mathworks, […]). The algorithm extracts single cell traces including position, nuclear and cytoplasm fluorescence level. For example, the 3T3 cell nuclear area in each image is identified via the fluorescent nuclear marker GFP, and then the mean value of the nuclear intensity of the p65-DsRed marker is measured, and plotted as a function of time.
To investigate the role of combinatorial or temporal ordering of signals in NSC differentiation, the inventors cultured NSCs under combinatorial and sequential applications of the six regulatory ligands (FIG. 8A, FIGS. 22 and 23). For each independent NSC culture on the chip, the inventors introduced either one ligand each day (sequential inputs), or a combination of the selected ligands over a six-day period (combinatorial inputs). The inventors measured the ratio of the ligand-treated cells to untreated control for cell number and Hes5-GFP expression intensity. Each chip experiment consisted of 63 combinatorial and 720 sequential stimulation experiments, with duplicates (FIG. 8B). Multiple experiments were repeated resulting in nearly 3000 dynamic cultures analyzed. The inventors subjected all experimental outputs of NSC cell numbers and Hes5 expression to regression and classification tree analyses. NSCs' cellular states were categorized into two groups: differentiation (with decreased Hes5 level and cell numbers) and self-renewal (with increased Hes5 level and cell numbers) (FIG. 8D).
In this work, the inventors use decision tree analysis to generate descriptive and predictive models which map measurements about cell phenotypic features (i.e., cell count and Hes5-GFP expression) to experimental conditions (i.e., sequential and combinatorial application of six regulatory ligands) (Breiman, 1984). […]

The subject of experiment [6] is Hes5-GFP expression in NSCs. The experiment can be described thus: NSCs Hes5 level with sole presence of one ligand, on-chip culture. In kind it is cell-based, mouse. The method, then:
FIG. 6B depicts a histogram of Hes5-GFP expression in NSCs before (red) and after (black) one week culture with 100 ng/ml PDGF. High levels of Hes5 in NSCs indicate maintenance of stem cell state, while reduced Hes5 indicates progress towards differentiation.
Murine hematopoietic stem cells (HSC) are isolated by FACSAria III flow cytometer (BD Biosciences) as Lin−/c-Kit+/Sca-1+/CD48−/CD150+/CD34− (lineage, Lin: CD3e/CD11b/CD19/CD41/B220/Gr-1/Ter-119), which are approximately 50% pure HSCs. Macrophage colony-stimulating factor (M-CSF), a myeloid cytokine released during infection and inflammation, is employed to induce HSCs differentiation. […]
as §2

Another experiment relates to NF-κB in 3T3 cells. The experiment can be described thus: TNF-alpha induced NF-κB activation in 3T3 fibroblasts on chip. In kind it is cell-based, mouse.
Excerpt: The inventors took advantage of the long-term stable culture capability of the device and extended TNF-alpha induced NF-κB activation study in 3T3 fibroblasts for up to a week. The response of 3T3 cells to TNF-alpha stimulation is characterized by the nuclear translocation of transcription factor NF-κB, and visualized through automated fluorescence imaging (Kellogg, et al., 2015). Both single cells and a population of cells were successfully maintained in the present culture chambers, and were stimulated with series of TNF-alpha concentrations (0.001 to 100 ng/ml), which were simultaneously generated on-chip. […]
as §2

For “EGF: signaling ligand whose receptor is highly expressed during mouse forebrain development (NSYPGCPSSYDGYCLNGGVCMHIESLDSYTCNCVIGYSGDRCQTRDLRWWELR; not fully specified; Epidermal growth factor; UniProt P01132 977-1029, looked up)”, the “cell number raised by a factor” value in the experiment on NSCs [1] (CXCL added at day 1, ligand added at day 2) was 1.19 factor; in the experiment on NSCs [1] (Jagged added at day 1, ligand added at day 2) it was 1.38 factor. The “effect on cell number” value with NSCs [1] (ligand added at day 1 alone) was “does not introduce significant increase of cell number”. Further, in experiment [2] (ligand added at day 1), the “Hes5 expression relative to control” value was 86.8 % of the control. The increased cell number in the experiment on NSCs [3] is on record as 60%. Also, in the experiment with NSCs [4] (six-ligand sequence, ligand application moved to day 6), the Hes5 expression entry is on record as “significant reduction in Hes5 expression”. Further, the “Hes5 expression and cell numbers” value in the experiment on NSCs [4] (six-ligand sequence, ligand delivered on day 2) is “high Hes5 expression levels and unchanged cell numbers”.
As to “IFNγ: cytokine combined with TNF on human HSCs”, the “effect on TNF induced cell death” value with human HSCs is listed as “neutralize TNF induced cell death”.
PDGF: in the experiment on NSCs [1] (ligand added at day 1), the “cell number relative to control” value is 85.4 % of the control. In addition, the “Hes5 expression, mean ratio relative to control” value in experiment [5] (PDGF present, without DLL) is listed as 1.22; in experiment [5] (PDGF present, without DLL, CXCL), 1.37; in experiment [5] (PDGF present, without DLL, CXCL or EGF), 1.56; in experiment [5] (ligand present), at least 1.11. In addition, in experiment [5] (permutation test), the “increase of Hes5 expression by a factor” value stood at 1.06 factor. In addition, the “Hes5 expression relative to control” value is reported as 99.3 % of the control level in experiment [5] (permutation test, combined with DLL); 89.2 % of the control level in experiment [2] (DLL added at day 1, ligand applied at day 2); 126.6 % of the control in experiment [2] (ligand added at day 1). For the same substance, the Hes5 expression outcome in experiment [2] (decision tree, ligand present on the 1st day of culture) is given as “high Hes5 expression levels”. Also, the “increase of Hes5 level from its initial value” in experiment [6] is given as “around 25%”. Further, the cell fate outcome is listed as “promoting differentiation” in the experiment on NSCs [4] (DLL in day-1, ligand moved to day-2) and “NSCs self-renewal” with NSCs [4] (ligand at day 1).
Take TNF-alpha: the “single cell response to pulse stimulation (NF-κB)” value with NF-κB in 3T3 cells (0.1 and 0.2 ng/ml, first pulse, single cell level) is listed as “all cells respond to the first pulse stimulation”. Further, the “cytoplasm NF-κB level” value in the experiment on NF-κB in 3T3 cells (prolonged incubation and stimulation for one week) was “proportional to TNF-alpha concentration”.
